Measurements as given in PubChem BioAssay AID248 (DTP/NCI, 2004).
Inconclusive results and toxic doses are left out. No stated cut-off is given here; in the data, active means T/C of 150% or more; inactive means T/C below 125%.

Test system: L1210 leukemia ip in BDF1 mice, survival T/C
Assay: NCI In Vivo Anticancer Drug Screen. Data for tumor model L1210 Leukemia (intraperitoneal) in B6D2F1 (BDF1) mice
Conditions: endpoint: mean survival time, higher = longer survival
Outline: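 Transplantable tumor model; survival measured in treated vs vehicle control mice. Value = treated/control.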

[1] = dose: 100.0 mg/kg/injection, schedule: Q01DX001 (ip), vehicle: saline
[2] = dose: 200.0 mg/kg/injection, schedule: Q01DX001 (ip), vehicle: saline
[3] = dose: 400.0 mg/kg/injection, schedule: Q01DX001 (ip), vehicle: saline
[4] = dose: 100.0 mg/kg/injection, schedule: Q04DX002 (ip), vehicle: Klucel (hydroxypropylcellulose) (HPC)
[5] = dose: 200.0 mg/kg/injection, schedule: Q04DX002 (ip), vehicle: Klucel (hydroxypropylcellulose) (HPC)
[6] = dose: 100.0 mg/kg/injection, schedule: Q01DX009 (ip), vehicle: Klucel (hydroxypropylcellulose) (HPC)
[7] = dose: 200.0 mg/kg/injection, schedule: Q01DX009 (ip), vehicle: Klucel (hydroxypropylcellulose) (HPC)
[8] = dose: 400.0 mg/kg/injection, schedule: Q01DX009 (ip), vehicle: Klucel (hydroxypropylcellulose) (HPC)

Measured: T/C

Clc1ccc(-c2nnc3c4ccccc4ccn23)cc1
inactive: [1] 104 % of control | [2] 93 % of control | [3] 98 % of control

CSCC(C)(C)NC(=O)NCCCl
inactive: [4] 89 % of control | [5] 89 % of control

CC(C)CN1CC(Br)C(=O)NC1=O (stereo not given)
inactive: dose: 25.0 mg/kg/injection, schedule: Q01DX Z (ip), vehicle: methylcellulose (MC) 92 % of control | dose: 50.0 mg/kg/injection, schedule: Q01DX Z (ip), vehicle: methylcellulose (MC) 88 % of control

COC(=O)c1c(Cl)c(Cl)c(C(=O)OC)c(Cl)c1Cl
inactive: dose: 100.0 mg/kg/injection, schedule: Q01DX009 (ip), vehicle: saline with Tween-80 91 % of control | dose: 100.0 mg/kg/injection, schedule: Q04DX003 (ip), vehicle: saline with Tween-80 90 % of control | dose: 200.0 mg/kg/injection, schedule: Q01DX009 (ip), vehicle: saline with Tween-80 92 % of control | dose: 200.0 mg/kg/injection, schedule: Q04DX003 (ip), vehicle: saline with Tween-80 90 % of control | dose: 400.0 mg/kg/injection, schedule: Q01DX009 (ip), vehicle: saline with Tween-80 92 % of control | dose: 400.0 mg/kg/injection, schedule: Q04DX003 (ip), vehicle: saline with Tween-80 95 % of control

NC(=O)Nc1nc(-c2ccccc2)no1
inactive: [6] 103 % of control | dose: 100.0 mg/kg/injection, schedule: Q04DX003 (ip), vehicle: Klucel (hydroxypropylcellulose) (HPC) 97 % of control | [7] 93 % of control | dose: 200.0 mg/kg/injection, schedule: Q04DX003 (ip), vehicle: Klucel (hydroxypropylcellulose) (HPC) 105 % of control | [8] 95 % of control | dose: 400.0 mg/kg/injection, schedule: Q04DX003 (ip), vehicle: Klucel (hydroxypropylcellulose) (HPC) 89 % of control

c1ccc(P(=NC2CCCCCCC2)(c2ccccc2)c2ccccc2)cc1
inactive: dose: 100.0 mg/kg/injection, schedule: Q01DX001 (ip), vehicle: saline with Tween-80 96 % of control | dose: 200.0 mg/kg/injection, schedule: Q01DX001 (ip), vehicle: saline with Tween-80 98 % of control | dose: 400.0 mg/kg/injection, schedule: Q01DX001 (ip), vehicle: saline with Tween-80 105 % of control

CNC(=O)Nc1ncn[nH]1
inactive: dose: 75.0 mg/kg/injection, schedule: Q01DX001 (ip), vehicle: carboxymethylcellulose (CMC) 103 % of control | dose: 150.0 mg/kg/injection, schedule: Q01DX001 (ip), vehicle: carboxymethylcellulose (CMC) 98 % of control | dose: 300.0 mg/kg/injection, schedule: Q01DX001 (ip), vehicle: carboxymethylcellulose (CMC) 104 % of control

COC1CCC2(C)C(C)C(C)CC3OC32C1 (stereo not given)
inactive: dose: 50.0 mg/kg/injection, schedule: Q01DX001 (ip), vehicle: saline 95 % of control | [1] 101 % of control | [2] 95 % of control | [3] 104 % of control

Nc1cccc(OCCOc2cccc([N+](=O)[O-])c2)c1
inactive: [1] 101 % of control | [2] 95 % of control | [3] 98 % of control

O=C(Nc1cc(C(F)(F)F)ccc1Cl)c1ccccc1
inactive: [6] 90 % of control | dose: 100.0 mg/kg/injection, schedule: Q04DX003 (ip), vehicle: saline 117 % of control | [7] 108 % of control | dose: 200.0 mg/kg/injection, schedule: Q04DX003 (ip), vehicle: saline 101 % of control | [8] 111 % of control | dose: 400.0 mg/kg/injection, schedule: Q04DX003 (ip), vehicle: saline 103 % of control

NC(=O)C1=C(N)c2ccccc2C1c1ccccc1 (stereo not given)
inactive: [1] 101 % of control | [2] 97 % of control | [3] 97 % of control

CN(C=O)COCN(C)C=O
inactive: dose: 100.0 mg/kg/injection, schedule: Q01DX001 (ip), vehicle: other 98 % of control | dose: 100.0 mg/kg/injection, schedule: Q04DX003 (ip), vehicle: other 98 % of control | dose: 200.0 mg/kg/injection, schedule: Q01DX001 (ip), vehicle: other 97 % of control | dose: 200.0 mg/kg/injection, schedule: Q04DX003 (ip), vehicle: other 102 % of control | dose: 400.0 mg/kg/injection, schedule: Q01DX001 (ip), vehicle: other 97 % of control | dose: 400.0 mg/kg/injection, schedule: Q04DX003 (ip), vehicle: other 104 % of control

O=C1CCCC/C1=C/c1ccco1
inactive: [4] 95 % of control | [5] 99 % of control | dose: 400.0 mg/kg/injection, schedule: Q04DX002 (ip), vehicle: Klucel (hydroxypropylcellulose) (HPC) 99 % of control
